This note sets out measurements from patent publication US10066190B2, “Mild liquid detergent formulations” (Henkel IP & Holding GmbH, priority 2016, dated 2018).

The data set relates to human stratum corneum. The experiment in a line: Corneosurfametry test. An excerpt: Another method to measure the skin irritancy potential is corneosurfametry (CSM) test, a noninvasive quantitative test that measures the interaction between surfactants and human stratum corneum. ([…] et al., Dermatology 189: 152-156 (1994)). Corneosurfametry involves removing a few layers of skin using cyanoacrylate skin surface strippings, short contact time with surfactants followed by staining the samples with fuchian dyes. A […] barrier allows greater penetration of the stain, therefore giving a more intense color, which is measured using colorimetrically with L*a*b* color space. This method is predictive of both protein and lipid damage in the skin. CIM (Color Indicator of Mildness) values are obtained from a corneosurfametry test. In a comparative study, the higher the CIM value, the milder the surfactant formulation. The test surfactant solution can be a solution with 3% active surfactant, or a 10% dilution of a surfactant formulation/product which has a total surfactant concentration of about 10%-25%. Corneosurfametry involves removing a few layers of human skin from the volar forearm of healthy adults using skin surface strippings. The skin was collected with D-Squame tapes (for tests with neutral pH formulas) and with Book tape (for tests with high pH formulas). […] Once the tapes are dry, they were analyzed with spectrophotometer. […]

The molecule `CCCCCCCCCCCCOS(=O)(=O)[O-].[Na+]` [1% SDS, SDS] showed a CIM of 36.84.
